# Experimental data taken from ChEMBL document CHEMBL1201862, “PubChem BioAssay data set” (2004).
#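 Step 1: Grow cells in 96-well plates. Step 2: Expose to compound for 48 hours at 5 concentrations. Step 3: Interpolate endpoints linearly; if unreached, use highest concentration. At the GI50, growth is halved.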 Activity calls are given as the source filed them. Cut-off read from the data, not from the text of the source: active = GI50 up to about 1.1 µM and inactive = higher.
# Tests used:
# Assay in all cases: DTP human tumour cell line panel, 48 h
# MOLT-4 = tested on: MOLT-4
# SN12C = tested on: SN12C
# 786-0 = tested on: 786-0
# OVCAR-3 = tested on: OVCAR-3
# EKVX = tested on: EKVX
# SNB-75 = tested on: SNB-75
# A498 = tested on: A498
# OVCAR-5 = tested on: OVCAR-5
# TK-10 = tested on: TK-10
# SK-MEL-5 = tested on: SK-MEL-5
# RPMI-8226 = tested on: RPMI-8226
# UO-31 = tested on: UO-31
# UACC-257 = tested on: UACC-257
# UACC-62 = tested on: UACC-62
# SK-MEL-2 = tested on: SK-MEL-2
# MDA-MB-231 = tested on: MDA-MB-231
# HOP-62 = tested on: HOP-62
# HT-29 = tested on: HT-29
# A549 = tested on: A549
# K562 = tested on: K562
# M14 = tested on: M14
# SF-539 = tested on: SF-539
# SK-MEL-28 = tested on: SK-MEL-28
# NCI-H226 = tested on: NCI-H226
# DU-145 = tested on: DU-145
# SF-268 = tested on: SF-268
# MDA-MB-435 = tested on: MDA-MB-435
# OVCAR-8 = tested on: OVCAR-8
# ACHN = tested on: ACHN
# NCI-H460 = tested on: NCI-H460
# NCI/ADR-RES = tested on: NCI/ADR-RES
# SK-OV-3 = tested on: SK-OV-3
# HCT-116 = tested on: HCT-116
# HCT-15 = tested on: HCT-15
# CAKI-1 = tested on: CAKI-1
# T47D = tested on: T47D
# NCI-H23 = tested on: NCI-H23
# COLO 205 = tested on: COLO 205
# KM12 = tested on: KM12
# BT-549 = tested on: BT-549
# SF-295 = tested on: SF-295
# IGROV-1 = tested on: IGROV-1
# RXF 393 = tested on: RXF 393
# MDA-N = tested on: MDA-N
# SR = tested on: SR
# NCI-H522 = tested on: NCI-H522
# HCC 2998 = tested on: HCC 2998
# HL-60 = tested on: HL-60
# SNB-19 = tested on: SNB-19
# Malme-3M = tested on: Malme-3M
# HOP-92 = tested on: HOP-92
# PC-3 = tested on: PC-3
# OVCAR-4 = tested on: OVCAR-4
# MCF7 = tested on: MCF7
# LOX IMVI = tested on: LOX IMVI
# U-251 = tested on: U-251
# SW-620 = tested on: SW-620
# Hs-578T = tested on: Hs-578T
# CCRF-CEM = tested on: CCRF-CEM
smiles,measurement,setting,value
CC(NC(=O)c1ccc(OP(=O)(OCc2ccc([N+](=O)[O-])o2)N(C)CCCCCl)cc1)c1ccc(OCC2CCCCC2)c(C(N)=O)c1 (stereo unspecified),GI50,MOLT-4,1.38 µM (inactive)
same,GI50,SN12C,2.25 µM (inactive)
same,GI50,786-0,4.32 µM (inactive)
same,GI50,OVCAR-3,2.57 µM (inactive)
same,GI50,EKVX,14.3 µM (inactive)
same,GI50,SNB-75,4.56 µM (inactive)
same,GI50,A498,12.9 µM (inactive)
same,GI50,OVCAR-5,15.2 µM (inactive)
same,GI50,TK-10,6.43 µM (inactive)
same,GI50,SK-MEL-5,1.66 µM (inactive)
same,GI50,RPMI-8226,1.03 µM (active)
same,GI50,UO-31,1.83 µM (inactive)
same,GI50,UACC-257,3.87 µM (inactive)
same,GI50,UACC-62,2.29 µM (inactive)
same,GI50,SK-MEL-2,3.05 µM (inactive)
same,GI50,MDA-MB-231,2.58 µM (inactive)
same,GI50,HOP-62,7.05 µM (inactive)
same,GI50,HT-29,2.63 µM (inactive)
same,GI50,A549,2.7 µM (inactive)
same,GI50,K562,2.42 µM (inactive)
same,GI50,M14,3.67 µM (inactive)
same,GI50,SF-539,2.56 µM (inactive)
same,GI50,SK-MEL-28,2.3 µM (inactive)
same,GI50,NCI-H226,3.98 µM (inactive)
same,GI50,DU-145,4.27 µM (inactive)
same,GI50,SF-268,2.67 µM (inactive)
same,GI50,MDA-MB-435,2.38 µM (inactive)
same,GI50,OVCAR-8,4.49 µM (inactive)
same,GI50,ACHN,3.93 µM (inactive)
same,GI50,NCI-H460,3.27 µM (inactive)
same,GI50,NCI/ADR-RES,> 36.6 µM (inactive)
same,GI50,SK-OV-3,> 33.1 µM (inactive)
same,GI50,HCT-116,2.88 µM (inactive)
same,GI50,HCT-15,2.45 µM
same,GI50,CAKI-1,12.4 µM (inactive)
same,GI50,T47D,2.06 µM (inactive)
same,GI50,NCI-H23,5.19 µM (inactive)
same,GI50,COLO 205,2.61 µM (inactive)
same,GI50,KM12,3.36 µM (inactive)
same,GI50,BT-549,2.36 µM (inactive)
same,GI50,SF-295,9.51 µM (inactive)
same,GI50,IGROV-1,2.75 µM (inactive)
same,GI50,RXF 393,2.25 µM (inactive)
same,GI50,MDA-N,2.97 µM (inactive)
same,GI50,SR,1.73 µM (inactive)
same,GI50,NCI-H522,2.38 µM (inactive)
same,GI50,HCC 2998,3.14 µM (inactive)
same,GI50,HL-60,3.33 µM (inactive)
same,GI50,SNB-19,16.4 µM (inactive)
same,GI50,Malme-3M,2.52 µM (inactive)
same,GI50,HOP-92,1.19 µM (inactive)
same,GI50,PC-3,3.44 µM (inactive)
same,GI50,OVCAR-4,2.35 µM (inactive)
same,GI50,MCF7,2.77 µM (inactive)
same,GI50,LOX IMVI,1.87 µM (inactive)
same,GI50,U-251,4.29 µM (inactive)
same,GI50,SW-620,4.58 µM (inactive)
Oc1ccc([I+]c2ccccc2)cc1O,GI50,MOLT-4,21.9 µM (inactive)
same,GI50,SN12C,40.5 µM (inactive)
same,GI50,786-0,65 µM (inactive)
same,GI50,OVCAR-3,28.1 µM (inactive)
same,GI50,EKVX,53.3 µM (inactive)
same,GI50,SNB-75,95.1 µM (inactive)
same,GI50,A498,> 100 µM (inactive)
same,GI50,OVCAR-5,59.6 µM (inactive)
same,GI50,TK-10,> 100 µM (inactive)
same,GI50,SK-MEL-5,36 µM (inactive)
same,GI50,RPMI-8226,12 µM (inactive)
same,GI50,UO-31,2.51 µM (inactive)
same,GI50,UACC-257,> 100 µM (inactive)
same,GI50,MDA-MB-231,46.7 µM (inactive)
same,GI50,HOP-62,34.2 µM (inactive)
same,GI50,HT-29,37.4 µM (inactive)
same,GI50,A549,24.9 µM (inactive)
same,GI50,K562,21.6 µM (inactive)
same,GI50,SF-539,29.2 µM (inactive)
same,GI50,Hs-578T,48.6 µM (inactive)
same,GI50,SK-MEL-28,61.9 µM (inactive)
same,GI50,NCI-H226,> 100 µM (inactive)
same,GI50,DU-145,57.8 µM (inactive)
same,GI50,SF-268,42.8 µM (inactive)
same,GI50,MDA-MB-435,23 µM (inactive)
same,GI50,OVCAR-8,53.3 µM (inactive)
same,GI50,ACHN,36.8 µM (inactive)
same,GI50,NCI-H460,23.3 µM (inactive)
same,GI50,NCI/ADR-RES,28.9 µM (inactive)
same,GI50,HCT-116,34.4 µM (inactive)
same,GI50,HCT-15,27.7 µM
same,GI50,CAKI-1,> 100 µM (inactive)
same,GI50,NCI-H23,26.3 µM (inactive)
same,GI50,COLO 205,34.4 µM (inactive)
same,GI50,KM12,24.8 µM (inactive)
same,GI50,BT-549,8.36 µM (inactive)
same,GI50,CCRF-CEM,9.46 µM (inactive)
same,GI50,SF-295,73.8 µM (inactive)
same,GI50,IGROV-1,29.7 µM (inactive)
same,GI50,RXF 393,52.2 µM (inactive)
same,GI50,MDA-N,35.3 µM (inactive)
same,GI50,SR,19.1 µM (inactive)
same,GI50,NCI-H522,17.8 µM (inactive)
same,GI50,HCC 2998,23.9 µM (inactive)
same,GI50,HL-60,16 µM (inactive)
same,GI50,SNB-19,26.2 µM (inactive)
same,GI50,Malme-3M,28.8 µM (inactive)
same,GI50,HOP-92,0.0583 µM (active)
same,GI50,PC-3,22.3 µM (inactive)
same,GI50,OVCAR-4,25.8 µM (inactive)
same,GI50,MCF7,> 10 µM (inactive)
same,GI50,LOX IMVI,30.3 µM (inactive)
same,GI50,U-251,17.4 µM (inactive)
same,GI50,SW-620,18.1 µM (inactive)
